Measurements: publication PMC4819177, “The rational search for selective anticancer derivatives of the peptide Trichogin GA IV: a multi-technique biophysical approach” (Scientific Reports, 2016)
Entries after “also recorded” stand apart in the source; their conditions may differ. Square brackets hold non-standard residues; d marks the D form. Peptide text beside a SMILES is read from it. * marks the point of attachment. TOAC = CC1(C)CC(N)(C(=O)O)CC(C)(C)N1[O]; Leu(ol) = CC(C)C[C@H](N)CO; Octanoyl = CCCCCCCC(=O)*; Api = NC1(C(=O)O)CCNCC1; Aib = CC(C)(N)C(=O)O

Experiments:
S. aureus = conditions: relative to TG; cited from earlier work
HeLa cells [1] = type: cell-based, human; conditions: MTT, 24 h exposure; average error about ±2 μM
Protocol: (§1) We studied the effect of TG and its analogues on normal (HDF) and transformed (T67 and HeLa) cells. The cellular viability was assessed after 24 hours of exposure to the peptides by the MTT assay (Table 1).
(§2) Culture media, foetal bovine serum (FBS) and antibiotics were purchased from Carlo Erba Dasit Group. The T67 human glioma cell line was derived by Lauro et al.[49] from a World Health Organization (WHO) Grade III gemistocytic astrocytoma. Human dermal fibroblasts (HDF) were obtained by ATCC. HDF were cultured in Fibroblast Basal Medium (ATCC) supplemented with 10% FBS. T67 and HeLa cells were cultured in Dulbecco’s modified Eagle’s medium (MMedical) supplemented with 10% FBS, 100 UI/ml penicillin, 100 μg/ml streptomycin, and 40 μg/ml gentamycin, and kept in a 5% CO2 atmosphere at 37 °C, with saturating humidity. Cell viability and number were measured by trypan blue exclusion method.
(§3) Cytotoxicity of peptides was estimated using a MTT assay. All the chemicals used for this assay have been purchased by sigma Aldrich and used without further purification. T67, HeLa and HDF cells were seeded in 24-well plates at 1 × 10^5 cells/well. Experiments were performed after 24 h of incubation at 37 °C in 5% CO2. After this time cells were washed and treated for 24 h with different concentrations of peptides; the cells are then incubated for 60 mins with 300 μM of MTT in culture medium. The absorbance of each well was measured at 450 nm with a spectrofluorometer (Wallac Victor multilabel counter; Perkin-Elmer Inc., Boston, MA, USA). Data are reported as the mean ± standard deviation of at least three independent experiments.

[2] = system: human dermal fibroblasts (HDF); type: cell-based; conditions: MTT, 24 h exposure; average error about ±2 μM
Protocol: as §1, §2, §3

[3] = system: T67 human glioma cell line; type: cell-based; conditions: MTT, 24 h exposure; average error about ±2 μM
Protocol: as §1, §2, §3

[4] = EPR of TOAC-labelled peptides in POPC SUV; type: binding; conditions: P:L 1:100, 78 μM peptide
From the text: (§4) EPR spectroscopy has been performed on TOAC-labelled analogues to determine the amount of peptide bound to the membrane and to evaluate the peptide dynamics. […] We studied all analogues in buffer solution and in POPC SUV, the same systems used for CD spectroscopy; four selected analogues (see cytotoxicity assay paragraph) were also studied interacting with a suspension of intact cells of the three cell lines. […] Additionally, from the simulations, we determined the value of the Azz hyperfine component that gives an indication of the polarity of the environment. All EPR spectra and simulations are reported in the Supplementary Information (Figs S1–S4), while in Fig. 4, we report an overview of the experiments. In the top part of the figure, we show the spectra of [TOAC^1] […]
The EPR spectra of all TOAC-labelled peptides recorded in POPC SUV are very similar to each other, and are shown in the Supplementary Information, Fig. S1. […]
(§5) Methanol, 99.9%, spectrophotometric grade, [4-(2-hydroxyethyl)-1-piperazinyl]ethanesulfonic acid (HEPES), and PBS buffer (NaCl 137 mM, KCl 2.7 mM, Na2HPO4 10 mM, KH2PO4 1.8 mM, pH 7.4) were purchased from Sigma-Aldrich. […] The spectra were recorded after 15–20 minutes of incubation of the peptide to the cell suspension. […] The microwave frequency was measured by a frequency counter, HP5342A. […]

HDF cells = experiment: EPR of TOAC-labelled peptides with intact HDF cells; type: binding, human; conditions: 125 μM, 25 nmol per million cells, 15–20 min incubation
From the text: as §4, with “[TOAC^1] TG in buffer solution (blue), in SUV (red), and interacting with T67 cells (magenta). In the bottom part, we show the spectra of the other three peptides, representative of the different degrees of biological activity, interacting with intact T67 cells.” for “[TOAC^1]”
(§6) Methanol, 99.9%, spectrophotometric grade, [4-(2-hydroxyethyl)-1-piperazinyl]ethanesulfonic acid (HEPES), and PBS buffer (NaCl 137 mM, KCl 2.7 mM, Na2HPO4 10 mM, KH2PO4 1.8 mM, pH 7.4) were purchased from Sigma-Aldrich. […] The spectra were recorded after 15–20 minutes of incubation of the peptide to the cell suspension. […]

HeLa cells [5] = experiment: EPR of TOAC-labelled peptides with intact HeLa cells; type: binding, human; conditions: 125 μM, 25 nmol per million cells, 15–20 min incubation
From the text: as §4, with “[TOAC^1] TG in buffer solution (blue), in SUV (red), and interacting with T67 cells (magenta). In the bottom part, we show the spectra of the other three peptides, representative of the different degrees of biological activity, interacting with intact T67 cells.” for “[TOAC^1]”
as §6

T67, HeLa and HDF cells = experiment: MTT cytotoxicity assay, summary over the three cell lines; type: cell-based, human; conditions: 24 h
Protocol: as §1, §3

T67 cells = experiment: EPR of TOAC-labelled peptides with intact T67 cells; type: binding, human; conditions: 125 μM, 25 nmol per million cells, 15–20 min incubation
From the text: as §4, with “[TOAC^1] TG in buffer solution (blue), in SUV (red), and interacting with T67 cells (magenta). In the bottom part, we show the spectra of the other three peptides, representative of the different degrees of biological activity, interacting with intact T67 cells.” for “[TOAC^1]”
as §6

[6] = system: suspensions of intact cells (T67, HeLa, HDF); experiment: EPR binding to suspensions of intact cells, summary; set-up: species or system human; conditions: over the three cell lines
From the text: The EPR spectra of all peptides interacting with suspensions of intact cells (Fig. S3) show two spectral components: the three sharp lines characteristic of peptides in aqueous solution and the broad lineshape of peptides bound to the membrane. Therefore all peptides are not fully bound to the cell membranes. The presence of two well-defined spectral components implies that the exchange of the peptides between the two phases (membrane and aqueous solution) is slow on the EPR timescale, with a frequency less than ≈1 MHz. The amount of peptide bound to the membrane is obtained from the relative contribution of each spectral component to the total area of the simulated spectrum. A detailed example of the procedure is reported in the Supplementary Information, Fig. S4. The spectra show small variations in binding for the same peptide in different cell lines, and large variations for different peptides in the same cell line. Among the analogues, [TOAC^1, Lys^6] TG and [TOAC^1, Leu^4] […]
as §5

Compound	antibacterial activity (S. aureus)	EC50 (HeLa cells [1]) [µM]	EC50 [2] [µM]	EC50 [3] [µM]	% membrane-bound peptide POPC SUV [4] [%]	% membrane-bound peptide HDF (HDF cells) [%]	% membrane-bound peptide HeLa (HeLa cells [5]) [%]	cytotoxicity / selectivity in words (T67, HeLa and HDF cells)	% membrane-bound peptide T67 (T67 cells) [%]	percentage of peptide bound to cells [6]
CCCCCCCC(=O)NC(C)(C)C(=O)NCC(=O)N[C@@H](CC(C)C)C(=O)NC(C)(C)C(=O)N[C@@H](CCCCN)C(=O)N[C@@H](CCCCN)C(=O)N[C@@H](CC(C)C)C(=O)NC(C)(C)C(=O)NCC(=O)N[C@H](C(=O)N[C@H](CO)CC(C)C)[C@@H](C)CC [[Lys^5,6] TG, Oct-UGLUKKLUGI-Lol]	remarkably increased activity	10	15	7	–	–	–	–	–	–
CCCCCCCC(=O)NC1(C(=O)NCC(=O)N[C@@H](CC(C)C)C(=O)NC2(C(=O)NCC(=O)NCC(=O)N[C@@H](CC(C)C)C(=O)NC(C)(C)C(=O)NCC(=O)N[C@H](C(=O)N[C@H](CO)CC(C)C)[C@@H](C)CC)CCNCC2)CC(C)(C)N([O])C(C)(C)C1 [[TOAC^1, Api^4] TG, Oct-XGLZGGLUGI-Lol] (Octanoyl-[TOAC]GL[Api]GGL[Aib]GI[Leu(ol)])	–	> 20	> 20	–	>99	28	21	selective toxicity; also recorded: selective cytotoxicity towards a cancer cell line	–	–
CCCCCCCC(=O)NC1(C(=O)NCC(=O)N[C@@H](CC(C)C)C(=O)NC(C)(C)C(=O)NCC(=O)NCC(=O)N[C@@H](CC(C)C)C(=O)NC(C)(C)C(=O)NCC(=O)N[C@H](C(=O)N[C@H](CO)CC(C)C)[C@@H](C)CC)CC(C)(C)N([O])C(C)(C)C1 [[TOAC^1] TG, Oct-XGLUGGLUGI-Lol] (Octanoyl-[TOAC]GL[Aib]GGL[Aib]GI[Leu(ol)])	–	3	5	1	100	84	78	–	85	~ 80%
